Test results: patent US9422286B2, “Metal-binding bifunctional compounds as diagnostic agents for Alzheimer's disease” (Washington University, priority 2014, dated 2016)

Legend:
Aβ fibrils = settings: non-Cu binding blocking agent; cited from earlier work
[1] = pH-spectrophotometric titration, stability constants of Cu^2+ complexes; format: physicochemical; settings: for Calculated pCu (−log[Cu]free): [Cu^2+]tot = [chelator]tot = 50 μM
Protocol: Similar spectrophotometric titrations were performed to determine the stability constants and solution speciation of Cu^2+ with L3-L6. Stability constants were determined by titrating solutions of the compounds and equimolar amounts of Cu(ClO4)2.6H2O (50 μM or 0.5 mM) with small aliquots of 0.1 M NaOH at room temperature. At least 30 UV-vis spectra were collected in the pH 3-11 range (FIG. 2). The acidity and stability constants were calculated using the HypSpec computer program (Protonic Software, UK, Gans, P.; Sabatini, A.; Vacca, A. Ann. Chim. 1999, 45). Speciation plots of the compounds and their metal complexes were calculated using the program HySS2009 (Protonic Software, UK) (Alderighi, L. Coord. Chem. Rev. 1999, 184, 311). […] The data obtained for the Cu complex of compound L7 could not be fit satisfactorily using a reasonable model, most likely due to a multinuclear complex formation, as observed by X-ray crystallography.

[2] = UV-vis pH titration, acidity constant determination; format: physicochemical; settings: 50 μM, 0.1 M NaCl, room temperature, methanol-water (methanol ≤20% v:v); for [HL1]/[L1]^− (pKa4): assigned to the phenol group
Protocol: UV-vis pH titrations were employed to determine the acidity constants of compounds L3-L7 and the stability constants of their Cu^2+ complexes. For acidity constants, solutions of the bifunctional compound (50 μM, 0.1 M NaCl, pH 3) were titrated with small aliquots of 0.1 M NaOH at room temperature. At least 30 UV-vis spectra were collected in the pH 3-11 range (FIG. 1).

Aβ40 fibrils = biological target: T1, Aβ40 fibrils (Homo sapiens, UniProt P05067); assay: Direct fluorescence assay with Aβ fibrils; format: binding; settings: [Aβ]=5 μM, λex/λem=350/450 nm; read-out: Kd, Aβ fibrils, compound fluorescence
T1 construct: purchased Keck Biotechnology Resource Laboratory, Yale University
T1 sequence (P05067 672-711 limits assumed): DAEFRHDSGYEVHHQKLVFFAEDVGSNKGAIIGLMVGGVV
Protocol: (§1) Aβ monomeric films were prepared by dissolving commercial Aβ42 (or Aβ40 for Aβ fibril binding studies) peptide (Keck Biotechnology Resource Laboratory, Yale University) in hexafluoroisopropanol (HFIP) (1 mM) and incubating for 1 hour at room temperature (Klein, W. L. Neurochemistry International 2002, 41, 345). The solution was then aliquoted out and evaporated overnight. The aliquots were vacuum centrifuged and the resulting monomeric films stored at −80° C. Aβ fibrils were generated by dissolving monomeric Aβ films in dimethyl sulfoxide (DMSO), diluting into the appropriate buffer, and incubating for 24 hours at 37° C. with continuous agitation (final DMSO concentration was <2%). […]
(§2) All fluorescence measurements were performed using a SpectraMax M2e plate reader (Molecular Devices). For ThT fluorescence studies, samples were diluted to a final concentration of 2.5 μM Aβ in phosphate buffered saline (PBS) solution containing 10 μM ThT and the fluorescence measured at 485 nm (λex=435 nm). For Aβ fibril binding studies, a 5 μM Aβ fibril solution was titrated with small amounts of compound and their fluorescence intensity measured (λex/λem=350/450 nm). For ThT competition assays, a 2 μM Aβ fibril solution with 1 μM ThT was titrated with small amounts of compound and the ThT fluorescence measured (λex/λem=435/485 nm). […]

[3] = Biodistribution and brain uptake of ^64Cu-radiolabeled compounds; format: in vivo, wild type CD-1 female mice; settings: ^64Cu complexes, tail vein injection, 2, 60 and 240 min
Protocol: Biodistribution studies were conducted in wild type CD-1 female mice (Charles River Laboratories) of age 5-7 weeks weighing 25.4±1.4 g. The injection dose was prepared by diluting to a 90% saline solution. The uptake of compounds was evaluated in mice (L3 and L6, n=7; L4, L5, and L7, n=3) that were injected via the tail vein with 0.22-0.37 MBq (6-10 μCi) of each compound per animal in 100 μL saline. After each time points (2, 60, and 240 min), mice were anesthetized with 1-2% isoflurane and sacrificed by cervical dislocation. Brain, blood, kidney, liver and other organs of interest were harvested and amount of radioactivity in each organ was counted on a gamma counter containing a NaI crystal. The data was corrected for radioactive decay and percent injected dose per gram (% ID/g) of tissue was calculated. All samples were calibrated against a known standard. Quantitative data were processed by Prism 6 (GraphPad Software, v 6.03, La Jolla, Calif.) and expressed as Mean±SEM. Statistical analysis performed using one-way analysis of variance and Student's t test. Differences at the 95% confidence level (p<0.05) were considered statistically significant.

ThT-bound Aβ40 fibrils = biological target: T2, ThT-bound Aβ40 fibrils (Homo sapiens, UniProt P05067); assay: ThT fluorescence competition assay; format: binding; settings: [Aβ]=2 μM, [ThT]=1 μM
T2 construct: purchased Keck Biotechnology Resource Laboratory, Yale University
T2 sequence (P05067 672-711 limits assumed): as above
Protocol: as §1, §2

Aβ deposits = settings: cited from earlier work
[4] = Cu^2+ complex, equimolar Cu(ClO4)2, room temperature

Q: Which “Affinity for Aβ fibrils” value (Aβ fibrils) does the source give for `Oc1cccc2scnc12` [BTZ, 4-hydroxybenzothiazole] here?
A: nanomolar affinity

Q: Which “Calculated pCu (−log[Cu]free)” value ([1]; pH 6.6) does the source give for `O=C(O)CN(CCN(CC(=O)O)CC(=O)O)CCN(CC(=O)O)CC(=O)O` [DTPA, diethylene triamine pentaacetic acid, reference compound] here?
A: 9.3

Q: What about the “Calculated pCu (−log[Cu]free)” value ([1]; pH 7.4) of the same compound?
A: 10.1

Q: Which results are given for `COc1cc(-c2nc3ccccc3s2)cc(CN2CCN(C)CCN(C)CC2)c1O` [L3]?
A: [H2L1]^+/[HL1] (pKa3) [2]: 8.27; [H3L1]^+2/[H2L1]^+ (pKa2) [2]: 6.35; [H4L1]^3+/[H3L1]^2+ (pKa1) [2]: 3.78; [HL1]/[L1]^− (pKa4) [2]: 9.34; Stability constant, M^2+ + L^− = [ML]^+ [1, 4]: 31.96(60); Stability constant, [ML(H2O)]^+1 = [ML(OH)] + H^+ [1, 4]: 10.14(60); Kd (Aβ40 fibrils): ~575 nM

Q: For `COc1cc(-c2nc3ccccc3s2)cc(CN2Cc3cccc(n3)CNCc3cccc(n3)C2)c1O` [L4], which “[H2L1]^+/[HL1] (pKa3)” value [2] is on record?
A: 9.34

Q: And the “[H3L1]^+2/[H2L1]^+ (pKa2)” value [2]?
A: 7.84

Q: And the “[H4L1]^3+/[H3L1]^2+ (pKa1)” value [2]?
A: 5.14

Q: And the “[HL1]/[L1]^− (pKa4)” value [2]?
A: 10.14

Q: And the “Stability constant, M^2+ + HL = [MHL]^+2” value [1, 4]?
A: 2.881

Q: What about the “Stability constant, M^2+ + L^− = [ML]^+” value [1, 4] of the same compound?
A: 27.093

Q: And the “Brain uptake and wash out” value [3]?
A: higher initial brain uptake at 2 min, followed by rapid wash out

Q: For `COc1cc(-c2nc3ccccc3s2)cc(CN2Cc3cccc(n3)CN(C)Cc3cccc(n3)C2)c1O` [L5], which “[H2L1]^+/[HL1] (pKa3)” value [2] is on record?
A: 8.02

Q: What about the “[H3L1]^+2/[H2L1]^+ (pKa2)” value [2] of the same compound?
A: 5.61

Q: What about the “[H4L1]^3+/[H3L1]^2+ (pKa1)” value [2] of the same compound?
A: 4.80

Q: And the “[HL1]/[L1]^− (pKa4)” value [2]?
A: 9.60

Q: What about the “Stability constant, M^2+ + HL = [MHL]^+2” value [1, 4] of the same compound?
A: 4.008

Q: And the “Stability constant, M^2+ + L^− = [ML]^+” value [1, 4]?
A: 27.224

Q: And the “Brain uptake and wash out” value [3]?
A: higher initial brain uptake at 2 min, followed by rapid wash out

Q: What does the source list for `COc1cc(-c2nc3ccccc3s2)cc(CN2Cc3cccc(n3)CN(CC(=O)O)Cc3cccc(n3)C2)c1O` [L6]?
A: [H2L1]^+/[HL1] (pKa3) [2]: 8.71; [H3L1]^+2/[H2L1]^+ (pKa2) [2]: 6.93; [H4L1]^3+/[H3L1]^2+ (pKa1) [2]: 4.57; [HL1]/[L1]^− (pKa4) [2]: 9.98; Stability constant, M^2+ + HL = [MHL]^+2 [1, 4]: 3.012; Stability constant, M^2+ + L^− = [ML]^+ [1, 4]: 30.098; Ki (ThT-bound Aβ40 fibrils): 325 ± 40 nM; Brain uptake and wash out [3]: higher initial brain uptake at 2 min, followed by rapid wash out

Q: Which “[H2L1]^+/[HL1] (pKa3)” value [2] does the source give for `COc1cc(-c2nc3ccccc3s2)cc(CN2Cc3cccc(n3)CN(Cc3cc(-c4nc5ccccc5s4)cc(OC)c3O)Cc3cccc(n3)C2)c1O` [L7] here?
A: 8.22

Q: And the “[H3L1]^+2/[H2L1]^+ (pKa2)” value [2]?
A: 7.39

Q: And the “[H4L1]^3+/[H3L1]^2+ (pKa1)” value [2]?
A: 4.35

Q: And the “[HL1]/[L1]^− (pKa4)” value [2]?
A: 10.65

Q: And the “Brain uptake and wash out” value [3]?
A: higher initial brain uptake at 2 min, followed by rapid wash out

Q: Which Ki (ThT-bound Aβ40 fibrils) does the source give for `COc1ccc(/C=C/c2ccc(O)cc2)cc1OC` [L8] here?
A: 66 ± 20 nM

Q: With `[11CH3]Nc1ccc(-c2nc3ccc(O)cc3s2)cc1` [^11C-PiB] as the compound, how does the “Binding to soluble amyloid, NFTs, Lewy bodies” value (Aβ deposits; at nanomolar concentrations) read?
A: does not bind

Q: What about the “Binding to Aβ deposits” value (Aβ deposits; in vitro autoradiography) of the same compound?
A: binds to aggregated, fibrillar Aβ deposits
